Assay results: patent US20080227797A1, “Pyridopyrimidine Derivatives as Pde4 Inhibitors for the Treatment of Inflammatory and Immune Diseases” (ASTRAZENECA AB, priority 2005, published 2008)

Target: recombinant Human Phosphodiesterase B2 (PDE4B2) (Homo sapiens, UniProt Q07343)
Assay: Human Phosphodiesterase B2 Alpha Screen Assay
Type: biochemical
Details: cAMP substrate, Alpha Screen cAMP kit, 60 minutes at room temperature
Procedure, shortened: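 Recombinant human PDE4B2 preincubated 15 min at RT with compound in 50 mM Tris pH 7.5, 8.3 mM MgCl2, 1.7 mM EGTA, 0.01% Brij35, then reacted with cAMP for 60 min at RT. Stopped with EDTA; AlphaScreen beads with biotinylated cAMP incubated 5 h in the dark before reading. IC50 from curve fitting.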

recombinant Human Phosphodiesterase B2 (PDE4B2), sequence (Q07343 1-564 isoform Q07343-2): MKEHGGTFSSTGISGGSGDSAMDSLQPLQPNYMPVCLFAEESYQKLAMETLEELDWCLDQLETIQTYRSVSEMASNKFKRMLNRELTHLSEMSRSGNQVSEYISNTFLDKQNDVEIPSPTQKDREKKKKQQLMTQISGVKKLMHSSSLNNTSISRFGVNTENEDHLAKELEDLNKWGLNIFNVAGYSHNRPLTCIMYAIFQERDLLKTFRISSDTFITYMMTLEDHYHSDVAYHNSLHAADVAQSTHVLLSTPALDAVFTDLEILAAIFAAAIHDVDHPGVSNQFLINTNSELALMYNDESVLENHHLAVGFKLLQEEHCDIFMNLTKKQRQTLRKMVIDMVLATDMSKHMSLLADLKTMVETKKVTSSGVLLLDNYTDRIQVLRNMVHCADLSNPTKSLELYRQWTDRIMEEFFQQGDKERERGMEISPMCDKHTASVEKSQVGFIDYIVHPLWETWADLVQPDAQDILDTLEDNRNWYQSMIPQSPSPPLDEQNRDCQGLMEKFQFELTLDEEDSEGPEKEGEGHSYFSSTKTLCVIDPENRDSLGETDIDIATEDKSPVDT

| Compound | IC50 |
| --- | --- |
| O=C(N[C@H]1CC[C@@H](n2c(=O)c3cc(F)cnc3n(-c3ccc(F)c(F)c3)c2=O)CC1)c1cc[nH]c1 [Example 96, N-{cis-4-[1-(3,4-difluorophenyl)-6-fluoro-2,4-dioxo-1,4-dihydropyrido[2,3-d]pyrimidin-3(2H)-yl]cyclohexyl}-1H-pyrrole-3-carboxamide] | 6.68 nM |
| Cn1cnc(C(=O)N[C@H]2CC[C@@H](n3c(=O)c4cc(F)cnc4n(-c4ccc(F)c(F)c4)c3=O)CC2)c1 [Example 97, N-{cis-4-[1-(3,4-difluorophenyl)-6-fluoro-2,4-dioxo-1,4-dihydropyrido[2,3-d]pyrimidin-3(2H)-yl]cyclohexyl}-1-methyl-1H-imidazole-4-carboxamide] | 2.18 nM |
| O=C(N[C@H]1CC[C@@H](n2c(=O)c3cc(F)cnc3n(-c3ccc(F)c(F)c3)c2=O)CC1)c1cc[nH]n1 [Example 98, N-{cis-4-[1-(3,4-difluorophenyl)-6-fluoro-2,4-dioxo-1,4-dihydropyrido[2,3-d]pyrimidin-3(2H)-yl]cyclohexyl}-1H-pyrazole-3-carboxamide] | 50.1 nM |
| O=C(CCN1CCOCC1)N[C@H]1CC[C@@H](n2c(=O)c3cc(F)cnc3n(-c3ccc(F)c(F)c3)c2=O)CC1 [Example 100, N-{cis-4-[1-(3,4-difluorophenyl)-6-fluoro-2,4-dioxo-1,4-dihydropyrido[2,3-d]pyrimidin-3(2H)-yl]cyclohexyl}-3-morpholin-4-ylpropanamide] | 2.12 nM |
| C=Cc1ccc(C(=O)N[C@H]2CC[C@@H](n3c(=O)c4cc(F)cnc4n(-c4ccc(F)c(F)c4)c3=O)CC2)cc1 [Example 101, N-{cis-4-[1-(3,4-difluorophenyl)-6-fluoro-2,4-dioxo-1,4-dihydropyrido[2,3-d]pyrimidin-3(2H)-yl]cyclohexyl}-4-vinylbenzamide] | 2.05 nM |
| C#Cc1ccc(C(=O)N[C@H]2CC[C@@H](n3c(=O)c4cc(F)cnc4n(-c4ccc(F)c(F)c4)c3=O)CC2)cc1 [Example 102, N-{cis-4-[1-(3,4-difluorophenyl)-6-fluoro-2,4-dioxo-1,4-dihydropyrido[2,3-d]pyrimidin-3(2H)-yl]cyclohexyl}-4-ethynylbenzamide] | 1 nM |
| O=C(N[C@H]1CC[C@@H](n2c(=O)c3cc(F)cnc3n(-c3ccc(F)c(F)c3)c2=O)CC1)c1cc2cccnc2[nH]1 [Example 103, N-{cis-4-[1-(3,4-difluorophenyl)-6-fluoro-2,4-dioxo-1,4-dihydropyrido[2,3-d]pyrimidin-3(2H)-yl]cyclohexyl}-1H-pyrrolo[2,3-b]pyridine-2-carboxamide] | 0.741 nM |
| O=C(N[C@H]1CC[C@@H](n2c(=O)c3cc(F)cnc3n(-c3ccc(F)c(F)c3)c2=O)CC1)c1nc2ccccc2s1 [Example 104, N-{cis-4-[1-(3,4-difluorophenyl)-6-fluoro-2,4-dioxo-1,4-dihydropyrido[2,3-d]pyrimidin-3(2H)-yl]cyclohexyl}-1,3-benzothiazole-2-carboxamide] | 2.09 nM |
| O=C(N[C@H]1CC[C@@H](n2c(=O)c3cc(F)cnc3n(-c3ccc(F)c(F)c3)c2=O)CC1)c1cc2cccnc2s1 [Example 105, N-{cis-4-[1-(3,4-difluorophenyl)-6-fluoro-2,4-dioxo-1,4-dihydropyrido[2,3-d]pyrimidin-3(2H)-yl]cyclohexyl}thieno[2,3-b]pyridine-2-carboxamide] | 6.03 nM |
| O=C(N[C@H]1CC[C@@H](n2c(=O)c3cc(F)cnc3n(-c3ccc(F)c(F)c3)c2=O)CC1)c1cc2nccnc2s1 [Example 106, N-{cis-4-[1-(3,4-difluorophenyl)-6-fluoro-2,4-dioxo-1,4-dihydropyrido[2,3-d]pyrimidin-3(2H)-yl]cyclohexyl}thieno[2,3-b]pyrazine-6-carboxamide] | 3.89 nM |
| O=C(N[C@H]1CC[C@@H](n2c(=O)c3cc(F)cnc3n(-c3ccc(F)c(F)c3)c2=O)CC1)c1nc2ncccn2n1 [Example 107, N-{cis-4-[1-(3,4-difluorophenyl)-6-fluoro-2,4-dioxo-1,4-dihydropyrido[2,3-d]pyrimidin-3(2H)-yl]cyclohexyl}[1,2,4]triazolo[1,5-a]pyrimidine-2-carboxamide] | 30.1 nM |
